Laboratory results from patent US8912179B2, “Heterocyclyl compounds as histamine H3 receptor ligands” (Suven Life Sciences Limited, priority 2010, dated 2014).
Where a name gives a salt, the structure may show the parent alone.

Target: Histamine H3 receptor (UniProt Q9Y5N1)
Assay: Binding assay for human or rat histamine H3 receptor ([3H] R-α-methylhistamine)
Settings: [3H] R-α-methylhistamine 3.0 nM; rat brain frontal cortex or recombinant human receptor in CHO cells (not specified which)
Method: Compounds can be evaluated according to the following procedures.
• Receptor source: Rat brain frontal cortex or recombinant human cDNA expressed in CHO cells • Radioligand: [^3H] R-α-methylhistamine • Final ligand concentration—[3.0 nM] • Non-specific determinant: R-α-methylhistamine (100 uM) • Reference compound: R-α-methylhistamine • Positive control: R-α-methylhistamine Incubation Conditions:
Increasing concentrations of test compounds or standard were incubated with membrane receptors and radioligand in 5 mM MgCl2 and 50 mM TRIS-HCl (pH 7.4) for 60 minutes at room temperature. The reaction was terminated by rapid vacuum filtration onto the glass fiber filters. Radioactivity trapped onto the filters was determined and compared to the control values in order to ascertain any interactions of the test compound(s) with either cloned human or rat receptor binding site.

Ki [nM] | Structure (SMILES)
21.2 | COc1ccc(C(=O)N2CCc3nc(OC4CCN(C5CCC5)CC4)sc3C2)cc1 [Example 17, [2-(1-Cyclobutyl-piperidin-4-yloxy)-6,7-dihydro-4H-thiazolo[5,4-c]pyridin-5-yl]-(4-methoxy-phenyl)-methanone tartrate]
0.3 | FC(F)(F)c1ccc(N2CCc3nc(OC4CCN(C5CCC5)CC4)sc3C2)cn1 [Example 23, 2-(1-Cyclobutyl-piperidin-4-yloxy)-5-(2-trifluoromethyl-pyridin-5-yl)-,6,7-dihydro-4H-thiazolo[5,4-c]pyridine]
11.3 | O=C(N1CCOCC1)N1CCc2nc(OC3CCN(C4CCC4)CC3)sc2C1 [Example 29, [2-(1-Cyclobutyl-piperidin-4-yloxy)-6,7-dihydro-4H-thiazolo[5,4-c]pyridin-5-yl]-morpholin-4-yl-methanone tartrate]
7.4 | O=S(=O)(c1ccccc1F)N1CCc2nc(OC3CCN(C4CCC4)CC3)sc2C1 [Example 20, 2-(1-Cyclobutyl-piperidin-4-yloxy)-5-(2-fluoro-benzenesulfonyl)-,6,7-dihydro-4H-thiazolo[5,4-c]pyridine tartrate]
15.4 | O=C(C1CC1)N1CCCc2nc(OC3CCN(C4CCC4)CC3)sc21 [Example 33, [2-(1-Cyclobutyl-piperidin-4-yloxy)-6,7-dihydro-5H-thiazolo[5,4-b]pyridin-4-yl]-cyclopropyl-methanone tartrate]
1.62 | NC(=O)c1ccc(N2CCc3nc(OC4CCN(C5CCC5)CC4)sc3C2)nc1 [Example 31, 6-[2-(1-Cyclobutyl-piperidin-4-yloxy)-6,7-dihydro-4H-thiazolo[5,4-c]pyridin-5-yl]-nicotinamide]
10.5 | CC(C)CC(=O)N1CCc2nc(OC3CCN(C4CCC4)CC3)sc2C1 [Example 7, 1-[2-(1-Cyclobutyl-piperidin-4-yloxy)-6,7-dihydro-4H-thiazolo[5,4-c]pyridin-5-yl]-3-methyl-butan-1-one tartrate]
12 | O=C(C1CCC1)N1CCc2nc(OC3CCN(C4CC4)CC3)sc2C1 [Example 11, Cyclobutyl-[2-(1-cyclopropyl-piperidin-4-yloxy)-6,7-dihydro-4H-thiazolo[5,4-c]pyridin-5-yl]-methanone tartrate]
6.96 | O=C(CN1CCCCC1)N1CCc2nc(OC3CCN(C4CCC4)CC3)sc2C1 [Example 18, 1-[2-(1-Cyclobutyl-piperidin-4-yloxy)-6,7-dihydro-4H-thiazolo[5,4-c]pyridin-5-yl]-2-piperidin-1-yl-ethanone tartrate]
0.75 | c1cncc(N2CCc3nc(OC4CCN(C5CCC5)CC4)sc3C2)c1 [Example 27, 2-(1-Cyclobutyl-piperidin-4-yloxy)-5-pyridin-3-yl-,6,7-dihydro-4H-thiazolo[5,4-c]pyridine tartrate]
5.43 | O=C(C1CC1)N1CCc2nc(OC3CCN(C4CC4)CC3)sc2C1 [Example 10, Cyclopropyl-[2-(1-cyclopropyl-piperidin-4-yloxy)-6,7-dihydro-4H-thiazolo[5,4-c]pyridin-5-yl]-methanone tartrate]
9.94 | CC(C)N1CCC(Oc2nc3c(s2)CN(C(=O)C2CC2)CC3)CC1 [Example 9, Cyclopropyl-[2-(1-isopropyl-piperidin-4-yloxy)-6,7-dihydro-4H-thiazolo[5,4-c]pyridin-5-yl]-methanone tartrate]
23.6 | O=C(C1CC1)N1CCCC(Oc2nc3c(s2)CN(C2CCC2)CC3)C1 (centres unmarked) [Example 14, [3-(5-Cyclobutyl-,6,7-dihydro-4H-thiazolo[5,4-c]pyridin-2-yloxy)-piperidin-1-yl]-cyclopropyl-methanone tartrate]
13.4 | O=C(c1ccccc1F)N1CCc2nc(OC3CCN(C4CCC4)CC3)sc2C1 [Example 6, [2-(1-Cyclobutyl-piperidin-4-yloxy)-6,7-dihydro-4H-thiazolo[5,4-c]pyridin-5-yl]-(2-fluoro-phenyl)-methanone tartrate]
